From patent publication US8163742B2, “Di-amino-substituted heterocyclic compounds and methods of use” (Amgen Inc., priority 2006, dated 2012) come the findings set out here.

For the test, the system named is SCF-stimulated UT-7 cells. Kind of test: SCF stimulated UT7 proliferation/survival assay. Type of test: cell-based. Particulars: Homo sapiens, average value. From the text:
SCF and GM-CSF Stimulated UT7 Proliferation/Survival Assay:
The purpose of this assay is to test the general anti-proliferative/cytotoxic effect of small molecule compounds on SCF or GM-CSF-stimulated UT-7 cells. Preventing SCF stimulated proliferation/survival is consistent with an on-mechanism effect whereas inhibition of GM-CSF driven proliferation/survival is indicative of off-target effects. UT-7 is a factor dependent human megakaryoblastic leukemia cell line that can be grown in either IL-3, GM-CSF, EPO or SCF (these cells have been confirmed to carry wild type c-kit receptor). Cells are maintained in growth media (IMDM, 10% HI-FBS, 1×PGS, 1 ng/mL GM-CSF). […] The amount of ATP is then measured as a surrogate marker for cell viability. This is accomplished by adding 50 μL of Perkin Elmer ATP 1 step reagent (as per instructed in the reagent manual, Cat. No. 6016739), incubating at RT for 15 min and reading the luminescence with a Perkin Elmer Topcount NXT™HTS (model c384) plate reader. The amount of SCF or GM-CSF stimulated viable cells in the presence of compound compared with in the presence of vehicle alone (HI control) is calculated using the formula: % control (POC)=(cpd−average LO)/(average HI−average LO)*100. […]

Usually IC50 stands for the midpoint of a concentration-inhibition curve. For the molecule `FC(F)(F)c1cccc(Nc2noc3c(Nc4nccc(-c5cccnc5)n4)c(Cl)ccc23)c1` [Example 1, 6-chloro-N-7-(4-(pyridin-3-yl)pyrimidin-2-yl)-N3-(3-(trifluoromethyl)phenyl)benzo[d]isoxazole-3,7-diamine], the IC50 is about 44 nM.
